Test results from article PMC11858513, “Antibiofilm Activities of Tritrpticin Analogs Against Pathogenic Pseudomonas aeruginosa PA01 Strains” (Molecules, 2025).
Converted amounts (≈) assume the structure as drawn. Like-named read-outs stand apart in the source and are kept apart here. Residues, ends and D or L forms follow the SMILES beside them.

Columns and labels:
P. aeruginosa PAO1 GFP [1] = assay: MIC against planktonic cells, absorbance at 600 nm; assay type: cell-based, Pseudomonas aeruginosa; settings: Table 2, BM2 medium, absorbance 600 nm, mean of three biological replicates
Experimental: (§1) Figure 1 The MIC (A), MBIC (B) and MBEC (C) values for the tritrpticin analog peptides were assessed against Pa PAO1 GFP. The MIC values were determined by measuring the absorbance of bacterial cells at 600 nm. The MBIC and MBEC values were determined by recording the fluorescence at 480 nm and 530 nm from the biofilms of GFP-expressing PAO1. Three biological replicates were run for each test sample, and the mean was calculated for the recorded absorption or fluorescence values. In the graphs, the error bars represent the standard deviation (±SD).
(§2) Figure 2 The MIC (A), MBIC (B) and MBEC (C) values for the tritrpticin-Lys derivative peptides were assessed against Pa PAO1 GFP. The MIC values were determined by measuring the absorbance of bacterial cells at 600 nm. The MBIC and MBEC values were determined by recording the fluorescence at 480 nm and 530 nm from the biofilms of GFP-expressing PAO1. Three replicates were run for each sample, the values were averaged and the error bars represent the standard deviation (±SD).
(§3) The methods to determine the MIC, MBIC and MBEC have been described in detail in our previous publication. The green fluorescent protein (GFP)-producing P. aeruginosa and S. aureus strains that were used in this work were also described in the earlier publication. Fluorescence detection was used as the main method to estimate the number of cells entrapped in the biofilm matrix. The methodology used for evaluation of the antibiofilm properties against an original Pseudomonas PA01 strain by crystal violet dye staining and the use of the Calgary biofilm device has been described elsewhere. The regular PA01 strain was provided by Dr. J. Harrison, Calgary. All measurements were carried out on an Eppendorf AF2200 plate reader. Every 96-well plate included controls for bacterial cell growth without peptide treatment and media alone. All measurements were carried out in triplicate, and the values in the figures represent the average and the error bars are standard deviation.

P. aeruginosa PAO1 GFP [2] = assay: MBIC, prevention of biofilm formation, GFP fluorescence method; assay type: cell-based, Pseudomonas aeruginosa; settings: Table 2, BM2 medium, mean of three biological replicates
Experimental: as §1, §2, §3

P. aeruginosa PAO1 GFP [3] = assay: MBEC, biofilm eradication, GFP fluorescence method; assay type: cell-based, Pseudomonas aeruginosa; settings: Table 2, BM2 medium, mean of three biological replicates
Experimental: as §1, §2, §3

S. aureus GFP [4] = assay: MIC against planktonic cells, absorbance at 600 nm; assay type: cell-based, Staphylococcus aureus; settings: Table 4; Sa GFP, 10% TSB and 0.1% glucose; absorbance 600 nm; mean of three biological replicates
Experimental: (§4) Figure 3 The MIC (A), MBIC (B) and MBEC (C) values for the tritrpticin analog peptides were assessed against Sa GFP. The MIC values were determined by measuring the absorbance of bacterial cells at 600 nm. The MBIC and MBEC values were determined by recording the fluorescence at 480 nm and 530 nm from the biofilms of GFP-expressing Sa. Three biological replicates were run for each test sample, and the mean was calculated for the recorded absorption or fluorescence values. In the graphs, the error bars represent the standard deviation (±SD).
as §3

S. aureus GFP [5] = assay: MBIC, GFP fluorescence method; assay type: cell-based, Staphylococcus aureus; settings: Table 4, Sa GFP, 10% TSB and 0.1% glucose, mean of three biological replicates
Experimental: as §4, §3

S. aureus GFP [6] = assay: MBEC, GFP fluorescence method; assay type: cell-based, Staphylococcus aureus; settings: Table 4, Sa GFP, 10% TSB and 0.1% glucose, mean of three biological replicates
Experimental: as §4, §3

S. aureus GFP [7] = assay type: cell-based, Staphylococcus aureus; settings: Table 4; Sa GFP; lowest concentration of peptide with no bacterial growth seen on the spot agar plate
Excerpt: as §3

P. aeruginosa PAO1 [8] = assay type: cell-based, Pseudomonas aeruginosa; settings: Table 5; regular PAO1 (no GFP), 1x BM2; absorbance 600 nm; mean of three biological replicates
Experimental: (§5) Figure 4 The MIC (A), MBIC (B) and MBRC (C) values for the peptides were assessed against P. aeruginosa PAO1 in the presence of 1× BM2. The inhibition of planktonic cells, the inhibition of biofilm cells and the reduction in biofilm cells were determined for the peptides by recording of the planktonic cells at 600 nm and quantification of biofilms formed by Pa PAO1 using crystal violet at 595 nm, respectively. Three biological replicates were run for each test sample, and the mean was calculated for the recorded absorption values. Data points with error bars indicate the standard deviation (±SD).
(§6) Figure 6 The MIC (A), MBIC (B) and MBEC (C) values for the tritrpticin-Lys derivatives against P. aeruginosa PAO1 were assessed by the crystal violet (CV) assay for the measurement of inhibition of biofilm formation and eradication of biofilm cells, respectively. The biofilm cells were rinsed, stained with 0.1% crystal violet for 15 min and then rinsed again. The CV was released from biofilm cells by the addition of 95% ethanol and quantified by reading on a spectrometer at 595 nm. Three replicates were run for each sample, the values were averaged and the error bars represent the standard deviation (±SD).
as §3

P. aeruginosa PAO1 [9] = assay type: cell-based
Experimental: (§7) We note the close agreement with the MBIC and MBEC values determined by the fluorescence and CV methods, similar to what we found in our previous work for an S. aureus MRSA strain [23]. We also re-evaluated the MBEC values that are measured using the Calgary biofilm device (CBD), where biofilms form on pegs, rather than at the bottom of the 96-well plates. […] In particular, we find that the single Pro9Ala Tritrp-P9A-substituted version has better MIC, MBIC and MBEC activities than the parent peptide as well as the Tritrp-P59A analog with both prolines substituted to Ala.
as §5, §6, §3

P. aeruginosa PAO1 [10] = assay type: cell-based, Pseudomonas aeruginosa; settings: Table 5; PAO1, 1x BM2; biofilms on pegs, cells plated and counted; three biological replicates
Experimental: as §7
Figure 5 The MBEC values for the peptides were assessed against P. aeruginosa PAO1 in the presence of 1× BM2 medium. The eradication of biofilm cells was determined for the peptides using the counting of biofilm cells formed by Pa PAO1. Three biological replicates were run for each test sample, and the mean was calculated for counted cell values. Data points with error bars indicate the standard deviation (±SD).
as §3

[11] = Table 5, PAO1, 1x BM2, crystal violet at 595 nm, mean of three biological replicates
[12] = Table 5, minimum biofilm reduction concentration, PAO1, 1x BM2, crystal violet at 595 nm, mean of three biological replicates

Row | SMILES | MIC at 600 nm LD50 (P. aeruginosa PAO1 GFP [1]) [µM] | MIC at 600 nm LD90 (P. aeruginosa PAO1 GFP [1]) [µM] | MBIC at 488 and 530 nm LD50 (P. aeruginosa PAO1 GFP [2]) [µmol/L] | MBIC at 488 and 530 nm LD90 (P. aeruginosa PAO1 GFP [2]) [µmol/L] | MBEC at 488 and 530 nm LD50 (P. aeruginosa PAO1 GFP [3]) [µmol/L] | MBEC at 488 and 530 nm LD90 (P. aeruginosa PAO1 GFP [3]) [µmol/L] | MIC at 600 nm LD50 (S. aureus GFP [4]) [µM] | MIC at 600 nm LD90 (S. aureus GFP [4]) [µM] | MBIC at 488 and 530 nm LD50 (S. aureus GFP [5]) [µmol/L] | MBIC at 488 and 530 nm LD90 (S. aureus GFP [5]) [µmol/L] | MBEC at 488 and 530 nm LD50 (S. aureus GFP [6]) [µmol/L] | MBEC at 488 and 530 nm LD90 (S. aureus GFP [6]) [µmol/L] | MBC Agar Plate (S. aureus GFP [7]) [µM] | MIC at 600 nm LD50 (P. aeruginosa PAO1 [8]) [µM] | MIC at 600 nm LD90 (P. aeruginosa PAO1 [8]) [µM] | MBIC (CV at 595 nm) LD50 (P. aeruginosa PAO1 [9]; [11]) [µmol/L] | MBIC (CV at 595 nm) LD90 (P. aeruginosa PAO1 [9]; [11]) [µmol/L] | MBRC (CV at 595 nm) LD90 (P. aeruginosa PAO1 [9]; [12]) [µmol/L] | MBEC from Calgary Biofilm Device (CBD) LD50 (P. aeruginosa PAO1 [10]) [µmol/L] | MBEC from Calgary Biofilm Device (CBD) LD90 (P. aeruginosa PAO1 [10]) [µmol/L] | other results
1 | CC(C)[C@H](NC(=O)[C@@H]1CCCN1C(=O)[C@@H](N)Cc1ccccc1)C(=O)N[C@H](C(=O)N[C@@H](Cc1c[nH]c2ccccc12)C(=O)N[C@@H](CCCNC(=N)N)C(=O)N[C@@H](Cc1c[nH]c2ccccc12)C(=O)N[C@@H](Cc1c[nH]c2ccccc12)C(=O)N[C@@H](CCCNC(=N)N)C(=O)N[C@@H](Cc1c[nH]c2ccccc12)C(=O)N[C@@H](Cc1c[nH]c2ccccc12)C(=O)N[C@@H](CCCNC(=N)N)C(=O)NCC(N)=O)[C@@H](C)O [PuroA-Arg, reference compound] (H-FPVTWRWWRWWRG-NH2) | 8 (≈ 15.3 µg/mL) | 16 (≈ 30.7 µg/mL) | 8 | 8 | 32 | 128 | 4 (≈ 7.67 µg/mL) | 4 (≈ 7.67 µg/mL) | 4 | 4 | 8 | 16 | 8 (≈ 15.3 µg/mL) | 8 (≈ 15.3 µg/mL) | 16 (≈ 30.7 µg/mL) | 16 | 16 | 32 | 16 | 64 | MBRC (CV at 595 nm) LD50 (P. aeruginosa PAO1 [9]; [12]): 32 µmol/L
2 | CC(C)[C@H](NC(=O)[C@@H]1CCCN1C(=O)[C@@H](N)Cc1ccccc1)C(=O)N[C@H](C(=O)N[C@@H](Cc1c[nH]c2ccccc12)C(=O)N[C@@H](CCCCN)C(=O)N[C@@H](Cc1c[nH]c2ccccc12)C(=O)N[C@@H](Cc1c[nH]c2ccccc12)C(=O)N[C@@H](CCCCN)C(=O)N[C@@H](Cc1c[nH]c2ccccc12)C(=O)N[C@@H](Cc1c[nH]c2ccccc12)C(=O)N[C@@H](CCCCN)C(=O)NCC(N)=O)[C@@H](C)O [PuroA-Lys, reference compound] (H-FPVTWKWWKWWKG-NH2) | 4 (≈ 7.34 µg/mL) | 8 (≈ 14.7 µg/mL) | 4 | 8 | 64 | 64 | 2 (≈ 3.67 µg/mL) | 4 (≈ 7.34 µg/mL) | 2 | 4 | 8 | 8 | 8 (≈ 14.7 µg/mL) | 8 (≈ 14.7 µg/mL) | 16 (≈ 29.3 µg/mL) | 8 | 16 | 32 | 32 | 64 | MBRC (CV at 595 nm) LD50 (P. aeruginosa PAO1 [9]; [12]): 32 µmol/L
3 | CC(C)C[C@H](NC(=O)[C@H](Cc1ccccc1)NC(=O)[C@@H]1CCCN1C(=O)[C@H](Cc1c[nH]c2ccccc12)NC(=O)[C@H](Cc1c[nH]c2ccccc12)NC(=O)[C@H](Cc1c[nH]c2ccccc12)NC(=O)[C@@H]1CCCN1C(=O)[C@H](Cc1ccccc1)NC(=O)[C@H](CCCNC(=N)N)NC(=O)[C@H](CCCNC(=N)N)NC(=O)[C@@H](N)C(C)C)C(=O)N[C@@H](CCCNC(=N)N)C(=O)N[C@@H](CCCNC(=N)N)C(N)=O [Tritrp-Arg] | 4 (≈ 7.61 µg/mL) | 8 (≈ 15.2 µg/mL) | 2 | 8 | 8 | 16 | 0.5 (≈ 0.951 µg/mL) | 2 (≈ 3.8 µg/mL) | 1 | 2 | 1 | 2 | 2 (≈ 3.8 µg/mL) | 4 (≈ 7.61 µg/mL) | 8 (≈ 15.2 µg/mL) | – | 8 | 32 | 16 | 32 | MBIC (CV at 595 nm) LD50 (P. aeruginosa PAO1 [9]; PAO1): 4 µmol/L; MBRC (CV at 595 nm) LD50 (P. aeruginosa PAO1 [9]; PAO1): 32 µmol/L
